The experiment concerns HeLa. The experiment can be described thus: Compound was evaluated for antiviral activity against Herpes simplex type 1 in HeLa TK- cells at 100 uM concentration. In kind it is functional, Homo sapiens.

SMILES strings stand for the structures.

For the compound `C=CCSc1cnc(O)nc1O`, the Virus titer is 65000000 pfu/ml.

With `CSc1cn(O[C@H]2CC(O)[C@@H](CO)O2)c(=O)[nH]c1=O` (stereo not given in full), the Virus titer was found to be 5200000 pfu/ml.

As to `C#CSc1cnc(O)nc1O`, the Virus titer was 37000000 pfu/ml.

Consider `C=CCSc1cn(O[C@H]2CC(O)[C@@H](CO)O2)c(=O)[nH]c1=O` (stereo not given in full), for which the Virus titer is reported as 5300000 pfu/ml.

As for `O=c1[nH]c(=O)n(O[C@H]2CC(O)[C@@H](CO)O2)cc1SCCO` (stereo not given in full), the Virus titer turned out to be 38000000 pfu/ml.

The values above are taken from ChEMBL document CHEMBL1121587, “Synthesis of some new S-alkylated derivatives of 5-mercapto-2'-deoxyuridine as potential antiviral agents” (1980).
